Results from patent US20220347171A1, “TREATMENT OF PRURIGO NODULARIS” (TREVI THERAPEUTICS, INC., priority 2016, published 2022).
Counter-ions that a name gives are not always drawn.

Test system: prurigo nodularis patients
Experiment: TR03ext (Example 3): Prurigo Activity Score (PAS) healed lesions; Stage 0 100% healed, Stage 1 75%-99%, Stage 2 50%-74%, Stage 3 25%-49%, Stage 4 0-24% healed
Assay type: in vivo, human
Text: In some embodiments, after the treatment the patient experiences a substantial reduction of itch that is characterized by at least one category/stage improvement in Prurigo Activity Score (PAS). In particular embodiments, after the treatment the patient experiences a reduction of itch that results in at least one category/stage improvement in Prurigo Activity Score (PAS) domains of number of prurigo lesions, prurigo lesions with excoriations/crusts and/or healed prurigo lesions. The PAS consists of 7 qualitative and quantitative measurements related to the examination of the skin. Type, number, distribution, affected body parts, and quantitative number of lesions in a representative body part are documented. The biggest lesion and the most representative lesion are monitored with documentation of height and area measurements. Prurigo lesion activity is recorded as a percentages based on their stage (0-4). In some embodiments, number measurements of lesions on the body have four numerical categories: 0, 1-19, 20-100 and >100. In some embodiments, prurigo lesions with excoriations/crusts have five categories: Stage 4 (76%-100%), Stage 3 (51%-75%), Stage 2 (26%-50%), Stage 1 (1-25%) and Stage 0 (0%). In some embodiments, healed prurigo lesions have five categories: Stage 4 (0-24%), Stage 3 (25-49%), Stage 2 (50-74%), Stage 1 (75%-99%), Stage 0 (100%).
This clinical study was a Phase 2 Open Label Extension Study (clinical study TR03ext) of the randomized, double-blind, 3-parallel arm, placebo controlled dose ranging study described in Example 2. All those subjects who were randomized, and then completed Example 2 study, were eligible to participate in the Extension Study.
The primary endpoint was a description of the overall incidence and nature of Treatment-Emergent AEs (TEAES) during weeks 5-50 of the study. Exploratory efficacy endpoints included Change from Baseline patient reported outcome measures of Worst itch NRS, itchy VRS and ItchyQoL, by Treatment Period study visit and Baseline NRS score. There was also an assessment of any potential skin lesion changes over time using the metrics of the PAS.
Patients in Extension Study were titrated over a dose range of 30 mg QD to 180 mg BID based on tolerability. The selected dose range was based on Example 2 study whereby patients were titrated from a 30 mg QD dose either to 30 mg BID, 60 mg BID, 90 mg BID, 120 mg BID or a 180 mg BID dose. The highest dose proposed was 180 mg BID (360 mg daily dose), and was well below the highest recommended daily treatment of 160 mg IV (equivalent to 960 mg oral) for the current marketed parenteral administered product.
Tables 12, 13 and 14 display healed lesion PAS data for subjects who received treatment for at least 6 months, subjects who received treatment for at least 9 months and subjects who completed 50 weeks of treatment in the study, respectively. The status of the healed lesion activity is reported as percentages based on their stage (0-4) using a grading system: Stage 0 (100% healed); Stage 1 (75%-99% healed); Stage 2 (50%-74% healed); Stage 3 (25%-49% healed); Stage 4: 0-24% healed. Thus the higher the stage, the […] the prurigo skin pathology.

[1] = treatment for at least 6 months
[2] = treatment for at least 9 months

## Oc1ccc2c3c1OC1[C@@H](O)CC[C@@]4(O)[C@@H](C2)N(CC2CCC2)CC[C@]314 (stereo partly drawn) [Nalbuphine, 17-(cyclobutylmethyl)-4,5α-epoxymorphinian-3, 6α, 14-triol, hydrochloride]
After 6 months, 10/16
  Subjects with at least one category improvement in the percentage of healed lesions (PAS): 62.5%
After 9 months, 7/13
  Subjects with at least one category improvement in the percentage of healed lesions (PAS): 53.8%
After 12 months, 6/12
  Subjects with at least one category improvement in the percentage of healed lesions (PAS): 50%
Treatment for 50 weeks
  Healed lesion PAS Category Shift: Baseline Stage 0 to Last Observed Stage 0: 1 (7.7) Number (%) of Subjects
  Healed lesion PAS Category Shift: Baseline Stage 0 to Last Observed Stage 1: 0 Number (%) of Subjects
  Healed lesion PAS Category Shift: Baseline Stage 0 to Last Observed Stage 2: 0 Number (%) of Subjects
  Healed lesion PAS Category Shift: Baseline Stage 0 to Last Observed Stage 3: 0 Number (%) of Subjects
  Healed lesion PAS Category Shift: Baseline Stage 0 to Last Observed Stage 4: 0 Number (%) of Subjects
  Healed lesion PAS Category Shift: Baseline Stage 1 to Last Observed Stage 0: 0 Number (%) of Subjects
  Healed lesion PAS Category Shift: Baseline Stage 1 to Last Observed Stage 1: 2 (15.4) Number (%) of Subjects
  Healed lesion PAS Category Shift: Baseline Stage 1 to Last Observed Stage 2: 1 (7.7) Number (%) of Subjects
  Healed lesion PAS Category Shift: Baseline Stage 1 to Last Observed Stage 3: 0 Number (%) of Subjects
  Healed lesion PAS Category Shift: Baseline Stage 1 to Last Observed Stage 4: 0 Number (%) of Subjects
  Healed lesion PAS Category Shift: Baseline Stage 2 to Last Observed Stage 0: 0 Number (%) of Subjects
  Healed lesion PAS Category Shift: Baseline Stage 2 to Last Observed Stage 1: 3 (23.1) Number (%) of Subjects
  Healed lesion PAS Category Shift: Baseline Stage 2 to Last Observed Stage 2: 0 Number (%) of Subjects
  Healed lesion PAS Category Shift: Baseline Stage 2 to Last Observed Stage 3: 0 Number (%) of Subjects
  Healed lesion PAS Category Shift: Baseline Stage 2 to Last Observed Stage 4: 0 Number (%) of Subjects
  Healed lesion PAS Category Shift: Baseline Stage 3 to Last Observed Stage 0: 0 Number (%) of Subjects
  Healed lesion PAS Category Shift: Baseline Stage 3 to Last Observed Stage 1: 0 Number (%) of Subjects
  Healed lesion PAS Category Shift: Baseline Stage 3 to Last Observed Stage 2: 0 Number (%) of Subjects
  Healed lesion PAS Category Shift: Baseline Stage 3 to Last Observed Stage 3: 2 (15.4) Number (%) of Subjects
  Healed lesion PAS Category Shift: Baseline Stage 3 to Last Observed Stage 4: 0 Number (%) of Subjects
  Healed lesion PAS Category Shift: Baseline Stage 4 to Last Observed Stage 0: 1 (7.7) Number (%) of Subjects
  Healed lesion PAS Category Shift: Baseline Stage 4 to Last Observed Stage 1: 0 (7.7) Number (%) of Subjects
  Healed lesion PAS Category Shift: Baseline Stage 4 to Last Observed Stage 2: 1 (7.7) Number (%) of Subjects
  Healed lesion PAS Category Shift: Baseline Stage 4 to Last Observed Stage 3: 1 (7.7) Number (%) of Subjects
  Healed lesion PAS: Last Observed PAS Result Stage 0: 2 (15.4) Number (%) of Subjects
  Healed lesion PAS: Last Observed PAS Result Stage 1: 6 (46.1) Number (%) of Subjects
  Healed lesion PAS: Last Observed PAS Result Stage 2: 2 (15.4) Number (%) of Subjects
  Healed lesion PAS: Last Observed PAS Result Stage 3: 3 (23.1) Number (%) of Subjects
  Healed lesion PAS: Last Observed PAS Result Stage 4: 1 (7.7) Number (%) of Subjects
[1]
  Healed lesion PAS Category Shift: Baseline Stage 0 to Last Observed Stage 0: 1 (5.9) Number (%) of Subjects
  Healed lesion PAS Category Shift: Baseline Stage 0 to Last Observed Stage 1: 0 Number (%) of Subjects
  Healed lesion PAS Category Shift: Baseline Stage 0 to Last Observed Stage 2: 0 Number (%) of Subjects
  Healed lesion PAS Category Shift: Baseline Stage 0 to Last Observed Stage 3: 0 Number (%) of Subjects
  Healed lesion PAS Category Shift: Baseline Stage 0 to Last Observed Stage 4: 0 Number (%) of Subjects
  Healed lesion PAS Category Shift: Baseline Stage 1 to Last Observed Stage 0: 0 Number (%) of Subjects
  Healed lesion PAS Category Shift: Baseline Stage 1 to Last Observed Stage 1: 2 (11.8) Number (%) of Subjects
  Healed lesion PAS Category Shift: Baseline Stage 1 to Last Observed Stage 2: 1 (5.9) Number (%) of Subjects
  Healed lesion PAS Category Shift: Baseline Stage 1 to Last Observed Stage 3: 0 Number (%) of Subjects
  Healed lesion PAS Category Shift: Baseline Stage 1 to Last Observed Stage 4: 0 Number (%) of Subjects
  Healed lesion PAS Category Shift: Baseline Stage 2 to Last Observed Stage 0: 1 (5.9) Number (%) of Subjects
  Healed lesion PAS Category Shift: Baseline Stage 2 to Last Observed Stage 1: 3 (17.6) Number (%) of Subjects
  Healed lesion PAS Category Shift: Baseline Stage 2 to Last Observed Stage 2: 0 Number (%) of Subjects
  Healed lesion PAS Category Shift: Baseline Stage 2 to Last Observed Stage 3: 0 Number (%) of Subjects
  Healed lesion PAS Category Shift: Baseline Stage 2 to Last Observed Stage 4: 0 Number (%) of Subjects
  Healed lesion PAS Category Shift: Baseline Stage 3 to Last Observed Stage 0: 0 Number (%) of Subjects
  Healed lesion PAS Category Shift: Baseline Stage 3 to Last Observed Stage 1: 1 (5.9) Number (%) of Subjects
  Healed lesion PAS Category Shift: Baseline Stage 3 to Last Observed Stage 2: 0 Number (%) of Subjects
  Healed lesion PAS Category Shift: Baseline Stage 3 to Last Observed Stage 3: 2 (11.8) Number (%) of Subjects
  Healed lesion PAS Category Shift: Baseline Stage 3 to Last Observed Stage 4: 0 Number (%) of Subjects
  Healed lesion PAS Category Shift: Baseline Stage 4 to Last Observed Stage 0: 1 (5.9) Number (%) of Subjects
  Healed lesion PAS Category Shift: Baseline Stage 4 to Last Observed Stage 1: 2 (11.8) Number (%) of Subjects
  Healed lesion PAS Category Shift: Baseline Stage 4 to Last Observed Stage 2: 1 (5.9) Number (%) of Subjects
  Healed lesion PAS Category Shift: Baseline Stage 4 to Last Observed Stage 3: 1 (5.9) Number (%) of Subjects
  Healed lesion PAS Category Shift: Baseline Stage 4 to Last Observed Stage 4: 1 (5.9) Number (%) of Subjects
  Healed lesion PAS: Last Observed PAS Result Stage 0: 3 (17.6) Number (%) of Subjects
  Healed lesion PAS: Last Observed PAS Result Stage 1: 9 (52.9) Number (%) of Subjects
  Healed lesion PAS: Last Observed PAS Result Stage 2: 2 (11.8) Number (%) of Subjects
  Healed lesion PAS: Last Observed PAS Result Stage 3: 3 (17.6) Number (%) of Subjects
  Healed lesion PAS: Last Observed PAS Result Stage 4: 1 (5.9) Number (%) of Subjects
[2]
  Healed lesion PAS Category Shift: Baseline Stage 0 to Last Observed Stage 0: 1 (7.1%) Number (%) of Subjects
  Healed lesion PAS Category Shift: Baseline Stage 0 to Last Observed Stage 1: 0 Number (%) of Subjects
  Healed lesion PAS Category Shift: Baseline Stage 0 to Last Observed Stage 2: 0 Number (%) of Subjects
  Healed lesion PAS Category Shift: Baseline Stage 0 to Last Observed Stage 3: 0 Number (%) of Subjects
  Healed lesion PAS Category Shift: Baseline Stage 0 to Last Observed Stage 4: 0 Number (%) of Subjects
  Healed lesion PAS Category Shift: Baseline Stage 1 to Last Observed Stage 0: 0 Number (%) of Subjects
  Healed lesion PAS Category Shift: Baseline Stage 1 to Last Observed Stage 1: 2 (14.3) Number (%) of Subjects
  Healed lesion PAS Category Shift: Baseline Stage 1 to Last Observed Stage 2: 1 (7.1) Number (%) of Subjects
  Healed lesion PAS Category Shift: Baseline Stage 1 to Last Observed Stage 3: 0 Number (%) of Subjects
  Healed lesion PAS Category Shift: Baseline Stage 1 to Last Observed Stage 4: 0 Number (%) of Subjects
  Healed lesion PAS Category Shift: Baseline Stage 2 to Last Observed Stage 0: 0 Number (%) of Subjects
  Healed lesion PAS Category Shift: Baseline Stage 2 to Last Observed Stage 1: 3 (21.4) Number (%) of Subjects
  Healed lesion PAS Category Shift: Baseline Stage 2 to Last Observed Stage 2: 0 Number (%) of Subjects
  Healed lesion PAS Category Shift: Baseline Stage 2 to Last Observed Stage 3: 0 Number (%) of Subjects
  Healed lesion PAS Category Shift: Baseline Stage 2 to Last Observed Stage 4: 0 Number (%) of Subjects
  Healed lesion PAS Category Shift: Baseline Stage 3 to Last Observed Stage 0: 0 Number (%) of Subjects
  Healed lesion PAS Category Shift: Baseline Stage 3 to Last Observed Stage 1: 0 Number (%) of Subjects
  Healed lesion PAS Category Shift: Baseline Stage 3 to Last Observed Stage 2: 0 Number (%) of Subjects
  Healed lesion PAS Category Shift: Baseline Stage 3 to Last Observed Stage 3: 2 (14.3) Number (%) of Subjects
  Healed lesion PAS Category Shift: Baseline Stage 3 to Last Observed Stage 4: 0 Number (%) of Subjects
  Healed lesion PAS Category Shift: Baseline Stage 4 to Last Observed Stage 0: 1 (7.1) Number (%) of Subjects
  Healed lesion PAS Category Shift: Baseline Stage 4 to Last Observed Stage 1: 1 (7.1) Number (%) of Subjects
  Healed lesion PAS Category Shift: Baseline Stage 4 to Last Observed Stage 2: 1 (7.1) Number (%) of Subjects
  Healed lesion PAS Category Shift: Baseline Stage 4 to Last Observed Stage 3: 1 (7.1) Number (%) of Subjects
  Healed lesion PAS Category Shift: Baseline Stage 4 to Last Observed Stage 4: 1 (7.1) Number (%) of Subjects
  Healed lesion PAS: Last Observed PAS Result Stage 0: 2 (14.3) Number (%) of Subjects
  Healed lesion PAS: Last Observed PAS Result Stage 1: 6 (42.9) Number (%) of Subjects
  Healed lesion PAS: Last Observed PAS Result Stage 2: 2 (14.3) Number (%) of Subjects
  Healed lesion PAS: Last Observed PAS Result Stage 3: 3 (21.4) Number (%) of Subjects
  Healed lesion PAS: Last Observed PAS Result Stage 4: 1 (7.1) Number (%) of Subjects
